This note sets out measurements from patent US9586994B2, “CD44V6-derived peptides for treating breast cancer” (KARLSRUHER INSTITUT FÜR TECHNOLOGIE, priority 2012, dated 2017).

Test [1] relates to CD44v6. Briefly: HGF-induced activation of Met and Erk in HT29 cells (Western blot). Type of test: cell-based, human. The method, then: FIG. 28: A: Activation of Met and signal transduction induced by HGF depends on CD44v6 in L3.6pl cells. L3.6pl cells were treated with the human v6 peptide (human v6 14mer) or the rat v6 peptide as control prior to induction with 10 ng/ml HGF. Activation of Met and ERK was determined in western blot. The numbers refer to the fold induction. The experiment was repeated at least 5 times. B: Activation of c-Met and signal transduction induced by HGF depends on CD44v6 HeLa cells. Starved HeLa cells respectively HT29 cells were incubated with the v6 peptide (human v6 14mer) or a control peptide for 10 minutes at 37° C. and then induced with 25 ng/ml of HGF for the indicated time points. Cells were then either lysed and the lysates were subjected to Western Blot analysis for phospho-Met and Met. C: Activation of c-Met and signal transduction induced by HGF depends on CD44v6 in HT29 cells. HGF-induced c-Met and Erk phosphorylation in HT29 was determined as described above using phospho-specific antibodies. […]
The contribution of CD44v6 to Met signaling in the human epithelial pancreatic cancer cells L3.6pl (derived from Colo 357), the cervix carcinoma cells HeLa and the colon cancer cells HT29 were analysed using the CD44v6 peptide (v6 14mer; v6 5mer tested as well, data not shown).

In test [2] the target is T1, CD44v6 (Homo sapiens, UniProt P16070).
T1 construct: endogenous in cells; host or cells: MCF7; MCF10A
Briefly: Peptide blocking of EGF-induced Erk phosphorylation in MCF10A cells (Western blot). The class given is cell-based. The note with it: MCF10 cells, serum-starved; peptide 100 ng/ml; EGF 20 ng/ml. Here is the method:
3×10^5 were seeded per well of a 6-well plate and serum-starved for 24 hours. Afterwards the medium inside of each well was reduced to 1 ml and the respective peptide (v6 (both peptides of SEQ ID No.: 2 and 6 were tested), or ctrl peptide) was added at a concentration of 100 ng/ml. The cells then were incubated together with the peptide at 37° C. for 5 mins. Ligand concentration for all peptide blocking experiments was 20 ng/ml.
To assay protein expression via Western blot cells were washed 1× with PBS and afterwards lysed in 2×Laemmli sample buffer (160 mM Tris-HCl pH 6.8, 4% SDS, 16% glycerol, 0.1M DTT, 0.01% bromphenol blue). The sample was sheared through a 26 gauge needle. In succession the lysates were boiled for 5 mins at 99° C. in order to denature the proteins in the sample and then spun down at 10 000 rmp for 1 min Eventually the samples were loaded onto an SDS-PAGE gel.
To test whether CD44v6 acts as a co-receptor in MCF7 or MCF10A cells, a peptide blocking experiment using peptides of SEQ ID NO: 6 was conducted. The cells were serum-starved for 24 h and then pre-incubated with a v6 peptide or an unspecific control peptide. Then, the cells were induced with EGF or HGF as a control. As a read-out for ErbB-activation, the phosphorylation of the Erk-kinase was used.
(A western blot detects proteins with antibodies after separation by electrophoresis.)

T1 sequence (P16070 21-742): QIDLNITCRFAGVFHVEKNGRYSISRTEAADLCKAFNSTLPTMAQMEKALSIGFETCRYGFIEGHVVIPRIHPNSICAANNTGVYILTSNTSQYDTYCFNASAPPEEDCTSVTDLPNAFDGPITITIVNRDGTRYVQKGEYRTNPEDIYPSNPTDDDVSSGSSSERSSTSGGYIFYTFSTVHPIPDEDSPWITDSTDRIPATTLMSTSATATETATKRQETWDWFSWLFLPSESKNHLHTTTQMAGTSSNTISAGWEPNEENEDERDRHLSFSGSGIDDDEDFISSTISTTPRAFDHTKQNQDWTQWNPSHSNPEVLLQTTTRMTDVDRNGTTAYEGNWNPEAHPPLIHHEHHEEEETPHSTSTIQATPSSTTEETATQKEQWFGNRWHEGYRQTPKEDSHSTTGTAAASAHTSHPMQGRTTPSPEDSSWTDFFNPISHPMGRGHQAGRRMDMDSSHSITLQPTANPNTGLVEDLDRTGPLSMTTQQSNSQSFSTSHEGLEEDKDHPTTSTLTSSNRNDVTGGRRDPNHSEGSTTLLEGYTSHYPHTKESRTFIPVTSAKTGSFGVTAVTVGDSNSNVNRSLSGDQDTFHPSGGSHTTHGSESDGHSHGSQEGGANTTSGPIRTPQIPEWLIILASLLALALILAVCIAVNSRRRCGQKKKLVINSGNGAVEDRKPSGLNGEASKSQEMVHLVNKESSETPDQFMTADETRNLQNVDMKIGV

“KEQWFGNRWHEGYR [SEQ ID NO: 6, human CD44v6 14mer peptide]”: in the test on CD44v6 [1] (HT29, starved, peptide 10 min 37° C., HGF 25 ng/ml), the “HGF-induced activation of Met” value is reported as “able to prevent activation”. For the same sequence, the “HGF-induced activation of downstream target Erk” value in the test on CD44v6 [1] (HT29, peptide before induction with HGF) is “able to prevent activation”. For the same sequence, the “EGF-induced activation of the ErbB receptors (Erk phosphorylation)” value in the test with CD44v6 [2] is “could be blocked”.
